Laboratory results taken from patent publication US11072581B2, “N-acyl-arylsulfonamide derivatives as aminoacyl-tRNA synthetase inhibitors” (Oxford Drug Design Limited, priority 2015, dated 2021).
Counter-ions that a name gives are not always drawn.

Key:
Format in all cases: biochemical
Conditions in all cases: i.a. = inactive at a concentration below 50 uM
[1] = molecular target: T1, SauIRS (isoleucyl-tRNA synthetase from Staphylococcus aureus) (Staphylococcus aureus, UniProt P41972); experiment: aaRS aminoacylation assay (ATP consumption), SauIRS
T1 construct: made in house; host or cells: Escherichia coli M15
T1 sequence (P41972 1-917): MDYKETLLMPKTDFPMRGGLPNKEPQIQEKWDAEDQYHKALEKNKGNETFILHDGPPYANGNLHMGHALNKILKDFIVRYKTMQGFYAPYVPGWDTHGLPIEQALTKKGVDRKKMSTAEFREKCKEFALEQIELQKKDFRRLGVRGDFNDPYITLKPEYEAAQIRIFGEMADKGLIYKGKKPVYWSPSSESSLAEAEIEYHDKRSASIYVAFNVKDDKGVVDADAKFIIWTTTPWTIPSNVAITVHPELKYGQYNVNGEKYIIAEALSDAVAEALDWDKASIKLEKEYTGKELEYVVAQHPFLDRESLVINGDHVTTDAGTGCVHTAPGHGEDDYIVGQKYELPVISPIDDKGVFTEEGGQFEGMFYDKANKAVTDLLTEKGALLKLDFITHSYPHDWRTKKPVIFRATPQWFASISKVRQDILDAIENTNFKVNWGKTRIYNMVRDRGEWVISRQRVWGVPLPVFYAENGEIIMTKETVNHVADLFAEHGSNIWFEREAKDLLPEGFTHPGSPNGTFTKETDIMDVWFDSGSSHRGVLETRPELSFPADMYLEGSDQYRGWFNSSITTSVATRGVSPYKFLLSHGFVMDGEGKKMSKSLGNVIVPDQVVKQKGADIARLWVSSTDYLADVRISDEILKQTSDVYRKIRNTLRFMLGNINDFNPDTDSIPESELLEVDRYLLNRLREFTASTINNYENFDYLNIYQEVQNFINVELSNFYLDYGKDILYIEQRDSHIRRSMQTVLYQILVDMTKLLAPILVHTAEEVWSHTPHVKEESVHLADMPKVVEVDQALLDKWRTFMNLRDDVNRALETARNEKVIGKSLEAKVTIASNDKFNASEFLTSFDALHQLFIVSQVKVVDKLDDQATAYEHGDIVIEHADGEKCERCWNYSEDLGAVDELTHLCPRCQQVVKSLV
Protocol: (§1) The compounds have been tested for antibacterial activity in vitro as aminoacyl-tRNA synthetases (aaRS) inhibitors following the following process.
(§2) Leucyl-, valyl- and isoleucyl-tRNA synthetases (LRS, VRS and IRS, respectively) from Escherichia coli (Eco) and Staphylococcus aureus (Sau).
(§3) Escherichia coli M15 cells transformed with plasmid pQE-60, or pQE-70, containing the open-reading frame sequence of one targeted aaRS were induced with 1 mM IPTG (Isopropyl β-D-1-thiogalactopyranoside) for 3 h at 37° C. Bacterial cells were harvested and lysed with 20 mM NaH2PO4 (pH 8.0), 200 mM NaCl, 10 mM imidazole and protease inhibitor cocktail (Roche). Pathogenic aaRS was purified by nickel affinity standard chromatography. Protein concentration was determined by spectrophotometry.
(§4) tRNA^Leu, tRNA^Val and tRNA^Ile from E. coli and S. aureus were transcribed in vitro for 4 h at 37° C. using T7 RNA polymerase. Transcription reaction contained 40 mM Tris-HCl (pH 8.0), 22 mM MgCl2, 1 mM spermidine, 5 mM DTT, 0.01% Triton X-100, 4 mM GTP, 4 mM ATP, 4 mM UTP, 4 mM CTP, 16 mM GMP, […] T7 RNA polymerase and 150 μg BstNI digested plasmid. Once finished, the reaction was applied on a 6% polyacrylamide-8 M urea denaturing gel to purify the transcribed tRNA and discard any impurities. Purified tRNA was quantified with Nanodrop 2000 (Thermo Scientific).
(§5) The aminoacylation reaction catalyzed by aminoacyl-tRNA synthetases (aaRS) takes place in two steps. In the first step, aaRS activates its cognate amino acid with ATP; and in the second step the activated amino acid is loaded to its corresponding tRNA. This reaction can be summarized as follows: ARS+aa+ATP=ARS-aa-AMP+PPi ARS-aa-AMP+tRNA=aa-tRNA+AMP+ARS [2] (ARS, Aminoacyl-tRNA synthetase; aa, amino acid; ARS-aa-AMP, enzyme-bound to aminoacyl-adenylate; aa-tRNA, aminoacyl-tRNA).
(§6) The activity of the pathogenic aaRSs was monitored by measuring the ATP consumption rate, since this consumption is directly proportional to the activity of the aaRS. If the tested compound, at a single point concentration of 50 μM, is inhibiting the aminoacylation reaction, there is a decrease in the ATP consumption, compared to the control reaction without compound, allowing the calculation of an inhibition ratio.
(§7) When the inhibition ratio for a given compound was above 80%, IC50 determination was performed with the same enzymatic assay (using the commercial kit Kinase RR from BioThema AB, Sweden) in the presence of serial dilutions of inhibitor. Known inhibitors of LRS, VRS or IRS were used as a positive control of the assay. The IC50 was calculated based on nonlinear regression analysis.

[2] = molecular target: T2, SauVRS (valyl-tRNA synthetase from Staphylococcus aureus) (Staphylococcus aureus, UniProt Q2FXR8); experiment: aaRS aminoacylation assay (ATP consumption), SauVRS
T2 construct: made in house; host or cells: Escherichia coli M15
T2 sequence (Q2FXR8 1-876): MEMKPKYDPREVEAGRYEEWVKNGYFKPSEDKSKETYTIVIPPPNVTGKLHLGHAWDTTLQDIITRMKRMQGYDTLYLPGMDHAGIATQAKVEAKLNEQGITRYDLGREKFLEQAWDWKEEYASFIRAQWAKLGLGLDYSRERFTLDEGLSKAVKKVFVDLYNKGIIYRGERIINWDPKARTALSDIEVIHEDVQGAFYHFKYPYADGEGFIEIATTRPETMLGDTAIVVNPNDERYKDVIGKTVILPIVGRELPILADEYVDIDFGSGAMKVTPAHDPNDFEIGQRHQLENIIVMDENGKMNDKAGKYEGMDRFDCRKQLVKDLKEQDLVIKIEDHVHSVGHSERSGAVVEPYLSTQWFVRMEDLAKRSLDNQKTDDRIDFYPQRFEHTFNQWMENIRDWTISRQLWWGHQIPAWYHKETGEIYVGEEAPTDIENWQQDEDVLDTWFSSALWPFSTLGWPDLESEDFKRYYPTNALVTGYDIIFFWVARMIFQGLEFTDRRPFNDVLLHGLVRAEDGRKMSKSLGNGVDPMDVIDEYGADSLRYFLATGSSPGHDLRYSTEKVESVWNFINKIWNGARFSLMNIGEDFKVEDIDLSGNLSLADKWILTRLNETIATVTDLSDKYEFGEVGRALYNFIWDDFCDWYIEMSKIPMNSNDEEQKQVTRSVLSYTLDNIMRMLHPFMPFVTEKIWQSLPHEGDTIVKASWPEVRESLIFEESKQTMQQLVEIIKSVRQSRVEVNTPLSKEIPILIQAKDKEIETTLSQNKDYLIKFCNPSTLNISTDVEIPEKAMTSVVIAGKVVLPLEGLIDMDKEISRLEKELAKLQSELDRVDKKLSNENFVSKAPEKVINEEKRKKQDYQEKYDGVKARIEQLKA
Protocol: as §1, §2, §3, §4, §5, §6, §7

[3] = molecular target: T3, EcoVRS (valyl-tRNA synthetase from Escherichia coli) (Escherichia coli, UniProt P07118); experiment: aaRS aminoacylation assay (ATP consumption), EcoVRS
T3 construct: made in house; host or cells: Escherichia coli M15
T3 sequence (P07118 whole entry): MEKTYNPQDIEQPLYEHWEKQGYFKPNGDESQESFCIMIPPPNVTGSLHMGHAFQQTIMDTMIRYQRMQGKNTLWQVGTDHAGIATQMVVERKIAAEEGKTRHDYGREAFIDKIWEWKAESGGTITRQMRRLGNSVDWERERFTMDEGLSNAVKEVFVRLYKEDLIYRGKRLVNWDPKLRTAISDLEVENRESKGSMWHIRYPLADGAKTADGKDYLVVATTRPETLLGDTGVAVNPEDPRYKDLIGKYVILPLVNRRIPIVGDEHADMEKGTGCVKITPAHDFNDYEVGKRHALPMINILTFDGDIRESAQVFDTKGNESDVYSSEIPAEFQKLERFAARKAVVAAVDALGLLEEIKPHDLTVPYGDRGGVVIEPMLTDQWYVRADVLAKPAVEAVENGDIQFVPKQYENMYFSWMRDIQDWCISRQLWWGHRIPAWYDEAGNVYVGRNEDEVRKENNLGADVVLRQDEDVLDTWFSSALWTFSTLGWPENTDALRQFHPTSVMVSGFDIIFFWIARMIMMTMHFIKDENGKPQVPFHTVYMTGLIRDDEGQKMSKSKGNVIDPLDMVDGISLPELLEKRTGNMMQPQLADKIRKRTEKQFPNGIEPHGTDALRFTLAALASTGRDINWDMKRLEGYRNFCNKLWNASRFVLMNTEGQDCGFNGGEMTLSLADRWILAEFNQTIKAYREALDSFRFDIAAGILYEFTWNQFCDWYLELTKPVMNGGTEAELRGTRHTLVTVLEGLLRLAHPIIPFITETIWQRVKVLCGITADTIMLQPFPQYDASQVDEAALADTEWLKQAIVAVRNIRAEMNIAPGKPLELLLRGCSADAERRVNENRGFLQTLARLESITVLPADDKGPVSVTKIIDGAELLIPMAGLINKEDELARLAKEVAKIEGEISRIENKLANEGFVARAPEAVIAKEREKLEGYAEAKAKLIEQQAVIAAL
Protocol: as §1, §2, §3, §4, §5, §6, §7

Row | SMILES | IC50 SauIRS [1] | IC50 SauVRS [2] | IC50 EcoVRS [3]
1 | N[C@@H](CC1CC1)C(=O)NS(=O)(=O)c1cccc(-c2ccccc2)c1 (racemic) [Compound 5.10] | i.a | i.a | i.a
2 | CC(C)C[C@H](N)C(=O)NS(=O)(=O)c1ccccc1 [Compound 5.1, (S)-2-amino-4-methyl-N-(phenylsulfonyl)pentanamide hydrochloride] | i.a. | i.a. | i.a.
3 | CC(C)C[C@H](N)C(=O)NS(=O)(=O)c1ccc(Oc2ccccc2)cc1 [Compound 5.2] | i.a | i.a | i.a
4 | CC(C)C[C@H](N)C(=O)NS(=O)(=O)c1ccccc1-c1ccccc1 [Compound 5.3] | i.a | i.a | i.a
5 | CC(C)C[C@H](N)C(=O)NS(=O)(=O)c1cccc(Cl)c1 [Compound 5.4] | i.a | i.a | i.a
6 | CC(C)C[C@H](N)C(=O)NS(=O)(=O)c1ccccc1Cl [Compound 5.5] | i.a | i.a | i.a
7 | CC(C)C[C@H](N)C(=O)NS(=O)(=O)c1ccccc1F [Compound 5.6] | i.a | i.a | i.a
8 | CCCCc1ccc(S(=O)(=O)NC(=O)[C@@H](N)CC(C)C)cc1 [Compound 5.7] | i.a | i.a | i.a
9 | CC(C)C[C@H](N)C(=O)NS(=O)(=O)c1cccc(-c2ccccc2)c1 [Compound 5.9] | i.a | i.a | i.a
10 | CC(C)C[C@H](N)C(=O)NS(=O)(=O)c1ccc(-c2ccccc2)cc1 [Compound 5.11] | i.a | i.a | i.a
11 | CC(C)C[C@H](N)C(=O)NS(=O)(=O)c1c(C(C)C)cc(C(C)C)cc1C(C)C [Compound 5.12] | i.a | i.a | i.a
12 | CC(C)C[C@H](N)C(=O)NS(=O)(=O)c1cccc2ccccc12 [Compound 5.13] | i.a | i.a | i.a
13 | CC(C)C[C@H](N)C(=O)NS(=O)(=O)c1ccc2ccccc2c1 [Compound 5.14] | i.a | i.a | i.a
14 | CC[C@H](C)[C@H](N)C(=O)NS(=O)(=O)c1ccc2ccccc2c1 [Compound 5.15] | i.a | i.a | i.a
15 | CC(C)C[C@H](N)C(=O)NS(=O)(=O)c1cccc2c(N(C)C)cccc12 [Compound 5.16, (S)-2-amino-N-((5-(dimethylamino)naphthalen-1-yl)sulfonyl)-4-methylpentanamide hydrochloride] | i.a | i.a | i.a
16 | COc1ccc2cc(S(=O)(=O)NC(=O)[C@@H](N)CC(C)C)ccc2c1 [Compound 5.17] | i.a | i.a | i.a
17 | CC(C)C[C@H](N)C(=O)NS(=O)(=O)c1cccc2cccnc12 [Compound 5.19] | i.a | i.a | i.a
